Source: patent publication US9920063B2, “Melampomagnolide B derivatives” (Board of Trustees of the University of Arkansas, priority 2013, dated 2018)
Where two headings read alike, the source gives them in different places.

C=C1C(=O)O[C@H]2[C@H]1CC/C(COC(=O)c1cc3ccccc3[nH]1)=C\CC[C@@]1(C)O[C@@H]21 [BS-1-28]
CC50 (HOP-92): 4660 nM | Percent Growth (HOP-92; HOP-92, Log10 Concentration −4.0): −97% | Percent Growth (HOP-92; HOP-92, Log10 Concentration −5.0): −91% | Percent Growth (HOP-92; HOP-92, Log10 Concentration −6.0): 40% | Percent Growth (HOP-92; HOP-92, Log10 Concentration −7.0): 71% | Percent Growth (HOP-92; HOP-92, Log10 Concentration −8.0): 74% | GI50 (HOP-92; HOP-92, NCI five dose): 480 nM | TGI (HOP-92; HOP-92, NCI five dose): 2.02E−6 | CC50 (PC-3): 6450 nM | Percent Growth (PC-3; PC-3, Log10 Concentration −4.0): −94% | Percent Growth (PC-3; PC-3, Log10 Concentration −5.0): −79% | Percent Growth (PC-3; PC-3, Log10 Concentration −6.0): 73% | Percent Growth (PC-3; PC-3, Log10 Concentration −7.0): 87% | Percent Growth (PC-3; PC-3, Log10 Concentration −8.0): 88% | GI50 (PC-3; PC-3, NCI five dose): 1420 nM | TGI (PC-3; PC-3, NCI five dose): 3.62E−4 | CC50 (CCRF-CEM): > 100000 nM | Percent Growth (CCRF-CEM; CCRF-CEM, Log10 Concentration −4.0): −37% | Percent Growth (CCRF-CEM; CCRF-CEM, Log10 Concentration −5.0): −15% | Percent Growth (CCRF-CEM; CCRF-CEM, Log10 Concentration −6.0): 3% | Percent Growth (CCRF-CEM; CCRF-CEM, Log10 Concentration −7.0): 90% | Percent Growth (CCRF-CEM; CCRF-CEM, Log10 Concentration −8.0): 99% | GI50 (CCRF-CEM; CCRF-CEM, NCI five dose): 286 nM | TGI (CCRF-CEM; CCRF-CEM, NCI five dose): 1.45E−6 | GI50 (CCRF-CEM; leukemia cell line CCRF-CEM): 288 nM | CC50 (RPMI-8226): > 100000 nM | Percent Growth (RPMI-8226; RPMI-8226, Log10 Concentration −4.0): −34% | Percent Growth (RPMI-8226; RPMI-8226, Log10 Concentration −5.0): −26% | Percent Growth (RPMI-8226; RPMI-8226, Log10 Concentration −6.0): −8% | Percent Growth (RPMI-8226; RPMI-8226, Log10 Concentration −7.0): 92% | Percent Growth (RPMI-8226; RPMI-8226, Log10 Concentration −8.0): 97% | GI50 (RPMI-8226; RPMI-8226, NCI five dose): 264 nM | TGI (RPMI-8226; RPMI-8226, NCI five dose): 8.27E−7 | CC50 (UACC-257): 6980 nM | Percent Growth (UACC-257; UACC-257, Log10 Concentration −4.0): −78% | Percent Growth (UACC-257; UACC-257, Log10 Concentration −5.0): −75% | Percent Growth (UACC-257; UACC-257, Log10 Concentration −6.0): 53% | Percent Growth (UACC-257; UACC-257, Log10 Concentration −7.0): 93% | Percent Growth (UACC-257; UACC-257, Log10 Concentration −8.0): 98% | GI50 (UACC-257; UACC-257, NCI five dose): 1610 nM | TGI (UACC-257; UACC-257, NCI five dose): 3.36E−6 | CC50 (HCT-116): 841 nM | Percent Growth (HCT-116; HCT-116, Log10 Concentration −4.0): −91% | Percent Growth (HCT-116; HCT-116, Log10 Concentration −5.0): −94% | Percent Growth (HCT-116; HCT-116, Log10 Concentration −6.0): −62% | Percent Growth (HCT-116; HCT-116, Log10 Concentration −7.0): 96% | Percent Growth (HCT-116; HCT-116, Log10 Concentration −8.0): 97% | GI50 (HCT-116; HCT-116, NCI five dose): 196 nM | TGI (HCT-116; HCT-116, NCI five dose): 4.06E−7 | CC50 (SNB-19): 7330 nM | Percent Growth (SNB-19; SNB-19, Log10 Concentration −4.0): −64% | Percent Growth (SNB-19; SNB-19, Log10 Concentration −5.0): −70% | Percent Growth (SNB-19; SNB-19, Log10 Concentration −6.0): 81% | Percent Growth (SNB-19; SNB-19, Log10 Concentration −7.0): 92% | Percent Growth (SNB-19; SNB-19, Log10 Concentration −8.0): 57% | GI50 (SNB-19; SNB-19, NCI five dose): 1600 nM | TGI (SNB-19; SNB-19, NCI five dose): 3.93E−6 | CC50 (NCI-H322M): 6470 nM | Percent Growth (NCI-H322M; NCI-H322M, Log10 Concentration −4.0): −89% | Percent Growth (NCI-H322M; NCI-H322M, Log10 Concentration −5.0): −82% | Percent Growth (NCI-H322M; NCI-H322M, Log10 Concentration −6.0): 88% | Percent Growth (NCI-H322M; NCI-H322M, Log10 Concentration −7.0): 95% | Percent Growth (NCI-H322M; NCI-H322M, Log10 Concentration −8.0): 81% | GI50 (NCI-H322M; NCI-H322M, NCI five dose): 1680 nM | TGI (NCI-H322M; NCI-H322M, NCI five dose): 3.29E−6 | CC50 (OVCAR-3): 2660 nM | Percent Growth (OVCAR-3; OVCAR-3, Log10 Concentration −4.0): −95% | Percent Growth (OVCAR-3; OVCAR-3, Log10 Concentration −5.0): −92% | Percent Growth (OVCAR-3; OVCAR-3, Log10 Concentration −6.0): −15% | Percent Growth (OVCAR-3; OVCAR-3, Log10 Concentration −7.0): 50% | Percent Growth (OVCAR-3; OVCAR-3, Log10 Concentration −8.0): 19% | TGI (OVCAR-3; OVCAR-3, NCI five dose): 5.92E−7 | CC50 (MDA-MB-231/ATCC): 8560 nM | Percent Growth (MDA-MB-231/ATCC; MDA-MB-231/ATCC, Log10 Concentration −4.0): −73% | Percent Growth (MDA-MB-231/ATCC; MDA-MB-231/ATCC, Log10 Concentration −5.0): −58% | Percent Growth (MDA-MB-231/ATCC; MDA-MB-231/ATCC, Log10 Concentration −6.0): 56% | Percent Growth (MDA-MB-231/ATCC; MDA-MB-231/ATCC, Log10 Concentration −7.0): 87% | Percent Growth (MDA-MB-231/ATCC; MDA-MB-231/ATCC, Log10 Concentration −8.0): 89% | GI50 (MDA-MB-231/ATCC; MDA-MB-231/ATCC, NCI five dose): 1140 nM | TGI (MDA-MB-231/ATCC; MDA-MB-231/ATCC, NCI five dose): 3.12E−6 | CC50 (MCF7): 6690 nM | Percent Growth (MCF7; MCF7, Log10 Concentration −4.0): −56% | Percent Growth (MCF7; MCF7, Log10 Concentration −5.0): −63% | Percent Growth (MCF7; MCF7, Log10 Concentration −6.0): 11% | Percent Growth (MCF7; MCF7, Log10 Concentration −7.0): 88% | Percent Growth (MCF7; MCF7, Log10 Concentration −8.0): 63% | GI50 (MCF7; MCF7, NCI five dose): 302 nM | TGI (MCF7; MCF7, NCI five dose): 1.39E−6 | CC50 (MDA-MB-468): 5170 nM | Percent Growth (MDA-MB-468; MDA-MB-468, Log10 Concentration −4.0): −52% | Percent Growth (MDA-MB-468; MDA-MB-468, Log10 Concentration −5.0): −71% | Percent Growth (MDA-MB-468; MDA-MB-468, Log10 Concentration −6.0): 3% | Percent Growth (MDA-MB-468; MDA-MB-468, Log10 Concentration −7.0): 95% | Percent Growth (MDA-MB-468; MDA-MB-468, Log10 Concentration −8.0): 76% | GI50 (MDA-MB-468; MDA-MB-468, NCI five dose): 307 nM | TGI (MDA-MB-468; MDA-MB-468, NCI five dose): 1.10E−6 | CC50 (SF-539): 6530 nM | Percent Growth (SF-539; SF-539, Log10 Concentration −4.0): −91% | Percent Growth (SF-539; SF-539, Log10 Concentration −5.0): −91% | Percent Growth (SF-539; SF-539, Log10 Concentration −6.0): 70% | Percent Growth (SF-539; SF-539, Log10 Concentration −7.0): 93% | Percent Growth (SF-539; SF-539, Log10 Concentration −8.0): 90% | GI50 (SF-539; SF-539, NCI five dose): 1320 nM | TGI (SF-539; SF-539, NCI five dose): 2.71E−4 | CC50 (UO-31): 5000 nM | Percent Growth (UO-31; UO-31, Log10 Concentration −4.0): −89% | Percent Growth (UO-31; UO-31, Log10 Concentration −5.0): −92% | Percent Growth (UO-31; UO-31, Log10 Concentration −6.0): 49% | Percent Growth (UO-31; UO-31, Log10 Concentration −7.0): 74% | Percent Growth (UO-31; UO-31, Log10 Concentration −8.0): 72% | GI50 (UO-31; UO-31, NCI five dose): 887 nM | TGI (UO-31; UO-31, NCI five dose): 2.21E−6 | CC50 (SN12C): 90500 nM | Percent Growth (SN12C; SN12C, Log10 Concentration −4.0): −59% | Percent Growth (SN12C; SN12C, Log10 Concentration −5.0): −35% | Percent Growth (SN12C; SN12C, Log10 Concentration −6.0): 77% | Percent Growth (SN12C; SN12C, Log10 Concentration −7.0): 71% | Percent Growth (SN12C; SN12C, Log10 Concentration −8.0): 60% | GI50 (SN12C; SN12C, NCI five dose): 1140 nM | TGI (SN12C; SN12C, NCI five dose): 4.83E−6 | CC50 (SNB-75): 4720 nM | Percent Growth (SNB-75; SNB-75, Log10 Concentration −4.0): −58% | Percent Growth (SNB-75; SNB-75, Log10 Concentration −5.0): −98% | Percent Growth (SNB-75; SNB-75, Log10 Concentration −6.0): 50% | Percent Growth (SNB-75; SNB-75, Log10 Concentration −7.0): 77% | Percent Growth (SNB-75; SNB-75, Log10 Concentration −8.0): 72% | GI50 (SNB-75; SNB-75, NCI five dose): 1010 nM | TGI (SNB-75; SNB-75, NCI five dose): 2.19E−6 | CC50 (ACHN): 4220 nM | Percent Growth (ACHN; ACHN, Log10 Concentration −4.0): −95% | Percent Growth (ACHN; ACHN, Log10 Concentration −5.0): −91% | Percent Growth (ACHN; ACHN, Log10 Concentration −6.0): 19% | Percent Growth (ACHN; ACHN, Log10 Concentration −7.0): 55% | Percent Growth (ACHN; ACHN, Log10 Concentration −8.0): 76% | GI50 (ACHN; ACHN, NCI five dose): 342 nM | TGI (ACHN; ACHN, NCI five dose): 1.49E−6 | CC50 (LOX IMVI): 732 nM | Percent Growth (LOX IMVI; LOX IMVI, Log10 Concentration −4.0): −81% | Percent Growth (LOX IMVI; LOX IMVI, Log10 Concentration −5.0): −88% | Percent Growth (LOX IMVI; LOX IMVI, Log10 Concentration −6.0): −72% | Percent Growth (LOX IMVI; LOX IMVI, Log10 Concentration −7.0): 93% | Percent Growth (LOX IMVI; LOX IMVI, Log10 Concentration −8.0): 93% | GI50 (LOX IMVI; LOX IMVI, NCI five dose): 182 nM | TGI (LOX IMVI; LOX IMVI, NCI five dose): 3.65E−7
